# How the values were obtained:
# Experiment in all cases: Test B preemergence/postemergence greenhouse plant response rating 0 to 10
# barley = type: in vivo, Hordeum vulgare; conditions: for Plant response rating, Barley: 0 to 10 scale
# Outline: (§1)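 Test chemicals, dissolved in a non-phytotoxic solvent, were applied to soil at planting and, at the same time, over foliage of seedlings at the one to four leaf stage.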
# barnyardgrass = type: in vivo, Echinochloa crus-galli; conditions: for Plant response rating, Barnyardgrass: 0 to 10 scale
# Outline: as §1
# bedstraw = type: in vivo, Galium aparine; conditions: for Plant response rating, Bedstraw: 0 to 10 scale
# Outline: as §1
# blackgrass = type: in vivo, Alopecurus myosuroides; conditions: for Plant response rating, Blackgrass: 0 to 10 scale
# Outline: as §1
# cheatgrass = type: in vivo, Bromus secalinus; conditions: for Plant response rating, Cheatgrass: 0 to 10 scale
# Outline: as §1
# chickweed = type: in vivo, Stellaria media; conditions: for Plant response rating, Chickweed: 0 to 10 scale
# Outline: as §1
# cocklebur = type: in vivo, Xanthium pensylvanicum; conditions: for Plant response rating, Cocklebur: 0 to 10 scale
# Outline: as §1
# corn = type: in vivo, Zea mays; conditions: for Plant response rating, Corn: 0 to 10 scale
# Outline: as §1
# cotton = type: in vivo, Gossypium hirsutum; conditions: for Plant response rating, Cotton: 0 to 10 scale
# Outline: as §1
# crabgrass = type: in vivo, Digitaria spp.; conditions: for Plant response rating, Crabgrass: 0 to 10 scale
# Outline: as §1
# giant foxtail = type: in vivo, Setaria faberii; conditions: for Plant response rating, Giant foxtail: 0 to 10 scale
# Outline: as §1
# lambsquarters = type: in vivo, Chenopodium album; conditions: for Plant response rating, Lambsquarter: 0 to 10 scale
# Outline: as §1
# morningglory = type: in vivo, Ipomoea hederacea; conditions: for Plant response rating, Morningglory: 0 to 10 scale
# Outline: as §1
# rape = type: in vivo, Brassica napus; conditions: for Plant response rating, Rape: 0 to 10 scale
# Outline: as §1
# rice = type: in vivo, Oryza sativa; conditions: for Plant response rating, Rice: 0 to 10 scale
# Outline: as §1
# sorghum = type: in vivo, Sorghum bicolor; conditions: for Plant response rating, Sorghum: 0 to 10 scale
# Outline: as §1
# soybean = type: in vivo, Glycine max; conditions: for Plant response rating, Soybean: 0 to 10 scale
# Outline: as §1
# sugar beet = type: in vivo, Beta vulgaris; conditions: for Plant response rating, Sugar beet: 0 to 10 scale
# Outline: as §1
# velvetleaf = type: in vivo, Abutilon theophrasti; conditions: for Plant response rating, Velvetleaf: 0 to 10 scale
# Outline: as §1
# wheat = type: in vivo, Triticum aestivum; conditions: for Plant response rating, Wheat: 0 to 10 scale
# Outline: as §1
# wild buckwheat = type: in vivo, Polygonum convolvulus; conditions: for Plant response rating, Wild buckwheat: 0 to 10 scale
# Outline: as §1
# wild oat = type: in vivo, Avena fatua; conditions: for Plant response rating, Wild oat: 0 to 10 scale
# Outline: as §1
# purple nutsedge = type: in vivo, Cyperus rotundus; conditions: for Plant response rating, Nutsedge: 0 to 10 scale
# Outline: as §1
smiles,measurement,setting,value
CC(C)Oc1cc(-c2nn3c(c2Cl)CCCC3)c(Cl)cc1Cl [Compound 70],"Plant response rating, Barley","barley; POSTEMERGENCE, Rate 50 g/ha",3
same,"Plant response rating, Barley","barley; PREEMERGENCE, Rate 50 g/ha",0
same,"Plant response rating (0 to 10 scale), Barley","barley; PREEMERGENCE, Rate 200 g/ha",0
same,"Plant response rating, Barley","barley; Rate 200 g/ha, POSTEMERGENCE",4
same,"Plant response rating, Barnyardgrass","barnyardgrass; POSTEMERGENCE, Rate 50 g/ha",6
same,"Plant response rating, Barnyardgrass","barnyardgrass; PREEMERGENCE, Rate 50 g/ha",0
same,"Plant response rating (0 to 10 scale), Barnyardgrass","barnyardgrass; PREEMERGENCE, Rate 200 g/ha",0
same,"Plant response rating, Barnyardgrass","barnyardgrass; Rate 200 g/ha, POSTEMERGENCE",7
same,"Plant response rating, Bedstraw","bedstraw; POSTEMERGENCE, Rate 50 g/ha",8
same,"Plant response rating, Bedstraw","bedstraw; PREEMERGENCE, Rate 50 g/ha",1
same,"Plant response rating (0 to 10 scale), Bedstraw","bedstraw; PREEMERGENCE, Rate 200 g/ha",6
same,"Plant response rating, Bedstraw","bedstraw; Rate 200 g/ha, POSTEMERGENCE",7
same,"Plant response rating, Blackgrass","blackgrass; PREEMERGENCE, Rate 50 g/ha",0
same,"Plant response rating (0 to 10 scale), Blackgrass","blackgrass; PREEMERGENCE, Rate 200 g/ha",0
same,"Plant response rating, Blackgrass","blackgrass; Rate 200 g/ha, POSTEMERGENCE",3
same,"Plant response rating, Cheatgrass","cheatgrass; POSTEMERGENCE, Rate 50 g/ha",3
same,"Plant response rating, Cheatgrass","cheatgrass; PREEMERGENCE, Rate 50 g/ha",0
same,"Plant response rating (0 to 10 scale), Cheatgrass","cheatgrass; PREEMERGENCE, Rate 200 g/ha",2
same,"Plant response rating, Cheatgrass","cheatgrass; Rate 200 g/ha, POSTEMERGENCE",4
same,"Plant response rating, Chickweed","chickweed; POSTEMERGENCE, Rate 50 g/ha",2
same,"Plant response rating, Chickweed","chickweed; PREEMERGENCE, Rate 50 g/ha",0
same,"Plant response rating (0 to 10 scale), Chickweed","chickweed; PREEMERGENCE, Rate 200 g/ha",0
same,"Plant response rating, Chickweed","chickweed; Rate 200 g/ha, POSTEMERGENCE",3
same,"Plant response rating, Cocklebur","cocklebur; POSTEMERGENCE, Rate 50 g/ha",8
same,"Plant response rating, Cocklebur","cocklebur; PREEMERGENCE, Rate 50 g/ha",0
same,"Plant response rating (0 to 10 scale), Cocklebur","cocklebur; PREEMERGENCE, Rate 200 g/ha",0
same,"Plant response rating, Cocklebur","cocklebur; Rate 200 g/ha, POSTEMERGENCE",8
same,"Plant response rating, Corn","corn; POSTEMERGENCE, Rate 50 g/ha",4
same,"Plant response rating, Corn","corn; PREEMERGENCE, Rate 50 g/ha",0
same,"Plant response rating (0 to 10 scale), Corn","corn; PREEMERGENCE, Rate 200 g/ha",0
same,"Plant response rating, Corn","corn; Rate 200 g/ha, POSTEMERGENCE",4
same,"Plant response rating, Cotton","cotton; POSTEMERGENCE, Rate 50 g/ha",10
same,"Plant response rating, Cotton","cotton; PREEMERGENCE, Rate 50 g/ha",0
same,"Plant response rating (0 to 10 scale), Cotton","cotton; PREEMERGENCE, Rate 200 g/ha",0
same,"Plant response rating, Cotton","cotton; Rate 200 g/ha, POSTEMERGENCE",10
same,"Plant response rating, Crabgrass","crabgrass; POSTEMERGENCE, Rate 50 g/ha",3
same,"Plant response rating, Crabgrass","crabgrass; PREEMERGENCE, Rate 50 g/ha",0
same,"Plant response rating (0 to 10 scale), Crabgrass","crabgrass; PREEMERGENCE, Rate 200 g/ha",2
same,"Plant response rating, Crabgrass","crabgrass; Rate 200 g/ha, POSTEMERGENCE",6
same,"Plant response rating, Giant foxtail","giant foxtail; POSTEMERGENCE, Rate 50 g/ha",5
same,"Plant response rating, Giant foxtail","giant foxtail; PREEMERGENCE, Rate 50 g/ha",0
same,"Plant response rating (0 to 10 scale), Giant foxtail","giant foxtail; PREEMERGENCE, Rate 200 g/ha",4
same,"Plant response rating, Giant foxtail","giant foxtail; Rate 200 g/ha, POSTEMERGENCE",5
same,"Plant response rating, Lambsquarter","lambsquarters; POSTEMERGENCE, Rate 50 g/ha",9
same,"Plant response rating, Lambsquarter","lambsquarters; PREEMERGENCE, Rate 50 g/ha",7
same,"Plant response rating (0 to 10 scale), Lambsquarter","lambsquarters; PREEMERGENCE, Rate 200 g/ha",10
same,"Plant response rating, Lambsquarter","lambsquarters; Rate 200 g/ha, POSTEMERGENCE",10
same,"Plant response rating, Morningglory","morningglory; POSTEMERGENCE, Rate 50 g/ha",7
same,"Plant response rating, Morningglory","morningglory; PREEMERGENCE, Rate 50 g/ha",0
same,"Plant response rating (0 to 10 scale), Morningglory","morningglory; PREEMERGENCE, Rate 200 g/ha",0
same,"Plant response rating, Morningglory","morningglory; Rate 200 g/ha, POSTEMERGENCE",8
same,"Plant response rating, Rape","rape; POSTEMERGENCE, Rate 50 g/ha",7
same,"Plant response rating, Rape","rape; PREEMERGENCE, Rate 50 g/ha",2
same,"Plant response rating (0 to 10 scale), Rape","rape; PREEMERGENCE, Rate 200 g/ha",3
same,"Plant response rating, Rape","rape; Rate 200 g/ha, POSTEMERGENCE",9
same,"Plant response rating, Rice","rice; POSTEMERGENCE, Rate 50 g/ha",5
same,"Plant response rating, Rice","rice; PREEMERGENCE, Rate 50 g/ha",0
same,"Plant response rating (0 to 10 scale), Rice","rice; PREEMERGENCE, Rate 200 g/ha",0
same,"Plant response rating, Rice","rice; Rate 200 g/ha, POSTEMERGENCE",5
same,"Plant response rating, Sorghum","sorghum; POSTEMERGENCE, Rate 50 g/ha",5
same,"Plant response rating, Sorghum","sorghum; PREEMERGENCE, Rate 50 g/ha",0
same,"Plant response rating (0 to 10 scale), Sorghum","sorghum; PREEMERGENCE, Rate 200 g/ha",0
same,"Plant response rating, Sorghum","sorghum; Rate 200 g/ha, POSTEMERGENCE",6
same,"Plant response rating, Soybean","soybean; POSTEMERGENCE, Rate 50 g/ha",5
same,"Plant response rating, Soybean","soybean; PREEMERGENCE, Rate 50 g/ha",0
same,"Plant response rating (0 to 10 scale), Soybean","soybean; PREEMERGENCE, Rate 200 g/ha",0
same,"Plant response rating, Soybean","soybean; Rate 200 g/ha, POSTEMERGENCE",6
same,"Plant response rating, Sugar beet","sugar beet; POSTEMERGENCE, Rate 50 g/ha",10
same,"Plant response rating, Sugar beet","sugar beet; PREEMERGENCE, Rate 50 g/ha",6
same,"Plant response rating (0 to 10 scale), Sugar beet","sugar beet; PREEMERGENCE, Rate 200 g/ha",10
same,"Plant response rating, Sugar beet","sugar beet; Rate 200 g/ha, POSTEMERGENCE",10
same,"Plant response rating, Velvetleaf","velvetleaf; POSTEMERGENCE, Rate 50 g/ha",10
same,"Plant response rating, Velvetleaf","velvetleaf; PREEMERGENCE, Rate 50 g/ha",0
same,"Plant response rating (0 to 10 scale), Velvetleaf","velvetleaf; PREEMERGENCE, Rate 200 g/ha",5
same,"Plant response rating, Velvetleaf","velvetleaf; Rate 200 g/ha, POSTEMERGENCE",10
same,"Plant response rating, Wheat","wheat; POSTEMERGENCE, Rate 50 g/ha",4
same,"Plant response rating, Wheat","wheat; PREEMERGENCE, Rate 50 g/ha",2
same,"Plant response rating (0 to 10 scale), Wheat","wheat; PREEMERGENCE, Rate 200 g/ha",3
same,"Plant response rating, Wheat","wheat; Rate 200 g/ha, POSTEMERGENCE",5
same,"Plant response rating, Wild buckwheat","wild buckwheat; POSTEMERGENCE, Rate 50 g/ha",10
same,"Plant response rating, Wild buckwheat","wild buckwheat; PREEMERGENCE, Rate 50 g/ha",8
same,"Plant response rating (0 to 10 scale), Wild buckwheat","wild buckwheat; PREEMERGENCE, Rate 200 g/ha",8
same,"Plant response rating, Wild buckwheat","wild buckwheat; Rate 200 g/ha, POSTEMERGENCE",10
same,"Plant response rating, Wild oat","wild oat; POSTEMERGENCE, Rate 50 g/ha",2
same,"Plant response rating, Wild oat","wild oat; PREEMERGENCE, Rate 50 g/ha",2
same,"Plant response rating (0 to 10 scale), Wild oat","wild oat; PREEMERGENCE, Rate 200 g/ha",3
same,"Plant response rating, Wild oat","wild oat; Rate 200 g/ha, POSTEMERGENCE",3
same,"Plant response rating, Nutsedge","purple nutsedge; POSTEMERGENCE, Rate 50 g/ha",1
same,"Plant response rating, Nutsedge","purple nutsedge; PREEMERGENCE, Rate 50 g/ha",0
same,"Plant response rating (0 to 10 scale), Nutsedge","purple nutsedge; PREEMERGENCE, Rate 200 g/ha",0
same,"Plant response rating, Nutsedge","purple nutsedge; Rate 200 g/ha, POSTEMERGENCE",5
